Assay results: paper PMC11927431 (eGastroenterology, 2025)
Where two headings read alike, the source gives them in different places.

Experiments:
CB1R = CB1R (Mus musculus, UniProt P47746); test: Radioligand saturation binding assay on brain membrane homogenates; conditions: read-out: Kd ± S.E.M., 30°C, 60 min
[1] = 3 mg/kg; cited from earlier work

CB1R, sequence (P47746 whole entry): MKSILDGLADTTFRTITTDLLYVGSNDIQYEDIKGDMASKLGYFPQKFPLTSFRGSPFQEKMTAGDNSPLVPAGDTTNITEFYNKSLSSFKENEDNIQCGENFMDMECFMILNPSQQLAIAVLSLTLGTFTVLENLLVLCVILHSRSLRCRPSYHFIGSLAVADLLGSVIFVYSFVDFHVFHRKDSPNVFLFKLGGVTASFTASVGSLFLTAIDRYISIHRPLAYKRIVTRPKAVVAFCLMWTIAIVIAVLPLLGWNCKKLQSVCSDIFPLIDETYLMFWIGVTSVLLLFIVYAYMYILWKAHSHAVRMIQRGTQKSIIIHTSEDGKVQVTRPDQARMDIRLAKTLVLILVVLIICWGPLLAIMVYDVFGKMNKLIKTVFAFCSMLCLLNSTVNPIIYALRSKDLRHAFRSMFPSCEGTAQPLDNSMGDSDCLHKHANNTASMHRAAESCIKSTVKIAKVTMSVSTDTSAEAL

SMILES	Kd (CB1R; CB1^IEC-/- mouse brain membrane homogenate) [nM]	Kd (CB1R; CB1^f/f mouse brain membrane homogenate) [nM]	Anxiogenic behaviour [1]
CCCCCCC(C)(C)c1ccc([C@@H]2C[C@H](O)CC[C@H]2CCCO)c(O)c1 [[^3H]-CP55.940]	1.7	1.68	
Cc1c(C(=O)NN2CCCCC2)nn(-c2ccc(Cl)cc2Cl)c1-c1ccc(Cl)cc1 [rimonabant]			induced significant anxiety
